pEC50, pIC50, pKi: −log10 of the molar value. Active and inactive are the calls of the source. The calls are words filed in the database; no cut-off is given here.

The target in assay [1] is T1, Glucocorticoid receptor (Homo sapiens) (UniProt P04150).
T1 sequence (whole entry): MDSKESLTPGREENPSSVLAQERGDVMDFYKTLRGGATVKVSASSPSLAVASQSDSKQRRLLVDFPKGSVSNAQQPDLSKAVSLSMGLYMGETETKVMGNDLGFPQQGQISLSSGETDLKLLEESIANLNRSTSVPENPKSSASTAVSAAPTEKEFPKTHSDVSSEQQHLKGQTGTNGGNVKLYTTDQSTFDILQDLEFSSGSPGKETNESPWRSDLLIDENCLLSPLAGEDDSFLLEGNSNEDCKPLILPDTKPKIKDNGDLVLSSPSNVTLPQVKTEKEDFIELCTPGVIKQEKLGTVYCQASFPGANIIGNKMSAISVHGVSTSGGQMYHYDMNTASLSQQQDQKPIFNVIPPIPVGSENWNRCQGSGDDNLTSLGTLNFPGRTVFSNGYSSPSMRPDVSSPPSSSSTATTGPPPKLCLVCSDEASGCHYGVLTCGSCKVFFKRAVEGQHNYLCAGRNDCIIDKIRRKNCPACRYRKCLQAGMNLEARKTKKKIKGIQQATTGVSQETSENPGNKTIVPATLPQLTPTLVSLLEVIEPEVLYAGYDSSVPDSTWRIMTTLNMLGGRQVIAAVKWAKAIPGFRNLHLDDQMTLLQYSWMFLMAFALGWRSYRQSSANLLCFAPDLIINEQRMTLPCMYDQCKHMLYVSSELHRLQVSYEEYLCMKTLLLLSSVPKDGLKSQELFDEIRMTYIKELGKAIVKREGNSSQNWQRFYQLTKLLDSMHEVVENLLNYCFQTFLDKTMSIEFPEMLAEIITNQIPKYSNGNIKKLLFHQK
In words: Percent inhibition of glucocorticoid receptor transcriptional activity at Dexamethasone EC50; not active. Type of assay: functional.

For assay [2], the target named is Estrogen receptor (Homo sapiens) (UniProt Q92731+P03372). The assay can be described thus: Percent inhibition of estrogen receptor transcriptional activity at estradiol EC50; NA=not active. Type of assay: functional.
In assay [3] the target is T2, Glucocorticoid receptor (Homo sapiens, UniProt P04150).
T2 sequence (P04150 whole entry): T1 sequence (whole entry)
In words: Cross-reactivity as binding to human glucocorticoid receptor (hGR); NA=not active. Type of assay: functional.

Assay [4] addresses T3, Mineralocorticoid receptor (Homo sapiens, UniProt P08235).
T3 sequence (P08235 whole entry): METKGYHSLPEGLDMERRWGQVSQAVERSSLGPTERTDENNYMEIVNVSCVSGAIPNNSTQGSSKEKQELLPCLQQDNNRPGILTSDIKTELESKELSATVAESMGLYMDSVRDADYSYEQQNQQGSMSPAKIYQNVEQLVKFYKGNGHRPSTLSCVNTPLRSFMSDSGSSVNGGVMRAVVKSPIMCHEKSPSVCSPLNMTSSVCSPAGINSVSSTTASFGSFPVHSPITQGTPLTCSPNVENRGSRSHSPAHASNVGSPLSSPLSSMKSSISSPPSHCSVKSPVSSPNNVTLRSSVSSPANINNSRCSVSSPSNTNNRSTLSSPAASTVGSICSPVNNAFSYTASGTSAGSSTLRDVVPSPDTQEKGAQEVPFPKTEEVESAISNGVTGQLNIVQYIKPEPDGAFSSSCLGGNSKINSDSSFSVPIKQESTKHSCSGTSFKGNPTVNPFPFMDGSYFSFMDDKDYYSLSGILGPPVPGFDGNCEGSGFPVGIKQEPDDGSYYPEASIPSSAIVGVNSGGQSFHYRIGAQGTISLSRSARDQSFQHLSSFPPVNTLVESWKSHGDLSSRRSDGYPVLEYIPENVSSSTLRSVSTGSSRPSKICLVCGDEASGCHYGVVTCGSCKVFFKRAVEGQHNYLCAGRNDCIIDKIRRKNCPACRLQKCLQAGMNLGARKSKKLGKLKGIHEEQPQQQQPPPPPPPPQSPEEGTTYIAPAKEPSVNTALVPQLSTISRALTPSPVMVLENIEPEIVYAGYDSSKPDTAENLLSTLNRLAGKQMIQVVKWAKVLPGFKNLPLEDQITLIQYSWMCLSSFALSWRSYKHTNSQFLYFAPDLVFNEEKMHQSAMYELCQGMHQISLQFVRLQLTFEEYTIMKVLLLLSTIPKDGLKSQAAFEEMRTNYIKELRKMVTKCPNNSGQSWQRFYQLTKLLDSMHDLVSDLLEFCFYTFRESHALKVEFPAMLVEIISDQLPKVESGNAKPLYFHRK
The assay can be described thus: Cross-reactivity as binding to human mineralocorticoid receptor (hMR). Type of assay: functional.

Assay [5] addresses T4, Progesterone receptor (Homo sapiens, UniProt P06401).
T4 sequence (P06401 whole entry): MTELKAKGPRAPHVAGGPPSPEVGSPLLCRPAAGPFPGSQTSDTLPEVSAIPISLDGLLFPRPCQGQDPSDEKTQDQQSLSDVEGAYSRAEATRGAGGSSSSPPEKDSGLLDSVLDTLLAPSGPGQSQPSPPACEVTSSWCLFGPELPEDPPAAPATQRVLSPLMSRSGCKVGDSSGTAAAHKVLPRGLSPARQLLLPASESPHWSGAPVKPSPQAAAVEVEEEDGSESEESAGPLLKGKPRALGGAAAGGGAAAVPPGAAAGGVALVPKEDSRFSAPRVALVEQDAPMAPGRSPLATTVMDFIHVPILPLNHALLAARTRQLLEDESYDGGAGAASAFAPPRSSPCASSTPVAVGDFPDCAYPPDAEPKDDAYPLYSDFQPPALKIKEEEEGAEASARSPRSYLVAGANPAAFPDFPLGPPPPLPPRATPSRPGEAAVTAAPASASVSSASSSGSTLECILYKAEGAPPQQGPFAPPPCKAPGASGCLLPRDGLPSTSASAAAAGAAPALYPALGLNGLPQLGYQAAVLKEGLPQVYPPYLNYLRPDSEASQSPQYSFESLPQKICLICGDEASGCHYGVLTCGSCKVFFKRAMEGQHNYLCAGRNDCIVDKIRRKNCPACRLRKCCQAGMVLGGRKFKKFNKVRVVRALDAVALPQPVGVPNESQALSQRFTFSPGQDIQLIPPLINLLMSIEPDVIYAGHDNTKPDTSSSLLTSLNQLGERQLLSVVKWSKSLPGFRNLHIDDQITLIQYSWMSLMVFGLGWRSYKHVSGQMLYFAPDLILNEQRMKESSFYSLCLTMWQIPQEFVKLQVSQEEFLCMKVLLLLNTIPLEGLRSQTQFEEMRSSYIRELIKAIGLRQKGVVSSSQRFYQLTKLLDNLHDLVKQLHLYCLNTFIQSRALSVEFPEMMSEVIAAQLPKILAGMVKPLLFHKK
The assay can be described thus: Human progesterone receptor (hPR) agonist activity using cotransfection assay in CV-1 cells. Format: functional, cell-based.

A further assay concerns the target T5, Androgen receptor (Homo sapiens, UniProt P10275).
T5 sequence (P10275 whole entry): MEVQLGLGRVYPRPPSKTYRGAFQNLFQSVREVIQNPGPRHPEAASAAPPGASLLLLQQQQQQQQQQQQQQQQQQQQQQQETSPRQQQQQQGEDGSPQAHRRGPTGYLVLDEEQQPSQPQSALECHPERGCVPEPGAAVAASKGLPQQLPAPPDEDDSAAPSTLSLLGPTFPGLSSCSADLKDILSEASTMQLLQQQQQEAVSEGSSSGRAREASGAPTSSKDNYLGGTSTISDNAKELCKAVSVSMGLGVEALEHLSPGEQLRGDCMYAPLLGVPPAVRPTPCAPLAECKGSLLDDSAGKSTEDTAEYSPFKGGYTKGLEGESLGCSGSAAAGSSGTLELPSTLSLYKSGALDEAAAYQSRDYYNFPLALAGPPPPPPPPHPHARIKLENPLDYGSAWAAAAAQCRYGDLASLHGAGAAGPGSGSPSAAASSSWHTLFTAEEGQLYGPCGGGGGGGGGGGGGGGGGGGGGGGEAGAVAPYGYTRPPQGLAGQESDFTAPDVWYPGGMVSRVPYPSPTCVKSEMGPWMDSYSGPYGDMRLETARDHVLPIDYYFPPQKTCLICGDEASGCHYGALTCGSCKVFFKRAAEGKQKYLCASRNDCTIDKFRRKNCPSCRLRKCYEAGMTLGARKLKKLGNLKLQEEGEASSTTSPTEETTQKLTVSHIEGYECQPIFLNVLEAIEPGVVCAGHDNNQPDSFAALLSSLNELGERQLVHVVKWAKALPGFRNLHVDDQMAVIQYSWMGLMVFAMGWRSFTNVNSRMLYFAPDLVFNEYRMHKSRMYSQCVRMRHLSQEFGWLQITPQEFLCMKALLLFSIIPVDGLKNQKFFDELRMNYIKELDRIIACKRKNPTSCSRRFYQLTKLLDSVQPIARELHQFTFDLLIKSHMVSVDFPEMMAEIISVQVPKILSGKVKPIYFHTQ
The assay can be described thus: Cross-reactivity as binding to human androgen receptor (hAR). Type of assay: functional.

In assay [6] the target is T2, Glucocorticoid receptor. The assay can be described thus: Cross-reactivity as binding to human glucocorticoid receptor (hGR). Type of assay: functional.
Assay [7] deals with T6, Mineralocorticoid receptor (Homo sapiens) (UniProt P08235).
T6 sequence (whole entry): T3 sequence (P08235 whole entry)
In words: Percent inhibition of mineralocorticoid receptor transcriptional activity at aldosterone EC50; NA=not active. Format: functional.

The target of assay [8] is T3, Mineralocorticoid receptor. The assay can be described thus: Cross-reactivity as binding to human mineralocorticoid receptor (hMR); NA=not active. Format: functional.
The target in assay [9] is T4, Progesterone receptor. The assay can be described thus: Human progesterone receptor (hPR) agonist activity in T47D human breast cancer cell line. Format: functional, cell-based.
Assay [10] concerns the target T4, Progesterone receptor. In words: Human progesterone receptor (hPR) agonist activity expressed in CV-1 cells. Format: functional, cell-based.
For assay [11], the target named is T4, Progesterone receptor. The assay can be described thus: Antagonist activity against human progesterone receptor (hPR) in T47D human breast cancer cell line. Format: functional, cell-based.
In assay [12] the target is T4, Progesterone receptor. The assay can be described thus: Binding affinity against human progesterone receptor (hPR) in a competitive binding assay.
Assay [13] addresses T4, Progesterone receptor. The assay can be described thus: Antagonist activity against human progesterone receptor (hPR) using cotransfection assay in CV-1 cells. Format: functional, cell-based.
Assay [14] deals with T1, Glucocorticoid receptor (Homo sapiens). In words: Percent inhibition of glucocorticoid receptor transcriptional activity at Dexamethasone EC50. Format: functional.
The target of assay [15] is T6, Mineralocorticoid receptor (Homo sapiens). In words: Percent inhibition of mineralocorticoid receptor transcriptional activity at aldosterone EC50. Format: functional.

In the case of `CC1=CC(C)(C)Nc2ccc(-c3cc(F)cc(C#N)c3)cc21`, the Efficacy entry in assay [1] and in assay [2] was “inactive” in each case. For the same compound, at Glucocorticoid receptor [3], the IC50 entry is reported as “Not Active”. Moreover, the pIC50 (usually −log10 of the IC50, conventionally taken in molar units) in assay [4] was < 6.00. The EC50 entry on Progesterone receptor [5] was “Not Active”.
For `CC1=CC(C)(C)Nc2ccc(-c3ccc(C#N)s3)cc21`, the pIC50 at Androgen receptor is 5.95; on Glucocorticoid receptor [6] it was 5.49; at Progesterone receptor [11], 7.10; against Progesterone receptor [13] it was 7.57. In addition, the Efficacy entry in assay [7] is “inactive”. Also, in assay [8], the IC50 entry is “Not Active”. For the same compound, the pEC50 (in general, −log10 of the EC50, conventionally taken in molar units) is 5.74 at Progesterone receptor [9] and 5.54 on Progesterone receptor [10]. Moreover, the pKi – broadly, the negative decadic logarithm of the Ki, by convention in mol/L – on Progesterone receptor [12] is 7.26.
Regarding `CC1(C)Nc2ccc(-c3csc(C#N)c3)cc2C(C)(C)C1=O`, the pIC50 on Androgen receptor is 5.96; at Glucocorticoid receptor [6], 6.05; in [4], 5.57; at Progesterone receptor [13] it was 7.85. Also, the pEC50 at Progesterone receptor [10] is 5.92. This compound gave a pKi on Progesterone receptor [12] of 7.91.
Consider `CC1=CC(C)(C)Nc2ccc(-c3csc(C#N)c3)cc21`, for which the pIC50 on Androgen receptor was 6.31; on Glucocorticoid receptor [6], 5.59; in assay [4] it was 5.69; against Progesterone receptor [11], 6.97. For the same compound, the results for the Efficacy in [14] and in [15] were 83% and 88%, respectively. In addition, the results for the pEC50 on Progesterone receptor [9] and at Progesterone receptor [10] were 6.61 and 5.74, respectively. Further, on Progesterone receptor [12], the pKi was 8.46.

These data come from ChEMBL document CHEMBL1133403 (Bioorg Med Chem Lett, 2000).
